Source: patent US11780849B2, “Imino sulfanone inhibitors of ENPP1” (Volastra Therapeutics, Inc., priority 2020, dated 2023)
Where two headings read alike, the source gives them in different places.

Tests used:
ENPP-1 ECD = ENPP-1 ECD (Homo sapiens (Human), UniProt P22413); test: Assay 2: inhibition of ENPP1 hydrolysis of 2′,3′-cGAMP (AMP-Glo, […] enzyme)
Protocol: Assay 2: Compared to the conditions in Assay 1, this assay has a larger dynamic range and ensures the system is under steady-state conditions by reducing the enzyme concentration in the assay.
Test compounds were plated in a 3× dilution scheme in a 384 well plate. […] AMP Detection solution (10 μL) was added to each well, the plate centrifuged and incubated for 60 min.

[1] = molecular target: ENPP1 on MDA-MB-231 cells (Homo sapiens (Human), UniProt P22413); test: Assay 3: inhibition of ENPP1 hydrolysis of AMP p-nitrophenyl ester on MDA-MB-231 cells
[2] = Assay 2 (KI), ENPP1 hydrolysis of 2′,3′-cGAMP, AMP-Glo, […] ENPP-1, 24 μM cGAMP
[3] = Assay 2 (KI), inhibition of ENPP1 hydrolysis of 2′,3′-cGAMP, no unit in Table 18 (Table 17 legend for this assay uses nM)
[4] = read-out: Assay 2 (KI), inhibition of ENPP1 hydrolysis of 2′,3′-cGAMP, no unit in Table 18 (Table 17 legend for this assay uses nM)
[5] = read-out: Assay 3 (KI, app), apparent KI from IC50 via Cheng/Prusoff, pNP-AMP […], MDA-MB-231 cells, pH 7.4, 37° C., 3 h, unit inferred
[6] = read-out: Assay 2 (KI), ENPP1 hydrolysis of 2′,3′-cGAMP, AMP-Glo, […] ENPP-1, 24 μM cGAMP

Chain of ENPP1 on MDA-MB-231 cells (P22413 whole entry): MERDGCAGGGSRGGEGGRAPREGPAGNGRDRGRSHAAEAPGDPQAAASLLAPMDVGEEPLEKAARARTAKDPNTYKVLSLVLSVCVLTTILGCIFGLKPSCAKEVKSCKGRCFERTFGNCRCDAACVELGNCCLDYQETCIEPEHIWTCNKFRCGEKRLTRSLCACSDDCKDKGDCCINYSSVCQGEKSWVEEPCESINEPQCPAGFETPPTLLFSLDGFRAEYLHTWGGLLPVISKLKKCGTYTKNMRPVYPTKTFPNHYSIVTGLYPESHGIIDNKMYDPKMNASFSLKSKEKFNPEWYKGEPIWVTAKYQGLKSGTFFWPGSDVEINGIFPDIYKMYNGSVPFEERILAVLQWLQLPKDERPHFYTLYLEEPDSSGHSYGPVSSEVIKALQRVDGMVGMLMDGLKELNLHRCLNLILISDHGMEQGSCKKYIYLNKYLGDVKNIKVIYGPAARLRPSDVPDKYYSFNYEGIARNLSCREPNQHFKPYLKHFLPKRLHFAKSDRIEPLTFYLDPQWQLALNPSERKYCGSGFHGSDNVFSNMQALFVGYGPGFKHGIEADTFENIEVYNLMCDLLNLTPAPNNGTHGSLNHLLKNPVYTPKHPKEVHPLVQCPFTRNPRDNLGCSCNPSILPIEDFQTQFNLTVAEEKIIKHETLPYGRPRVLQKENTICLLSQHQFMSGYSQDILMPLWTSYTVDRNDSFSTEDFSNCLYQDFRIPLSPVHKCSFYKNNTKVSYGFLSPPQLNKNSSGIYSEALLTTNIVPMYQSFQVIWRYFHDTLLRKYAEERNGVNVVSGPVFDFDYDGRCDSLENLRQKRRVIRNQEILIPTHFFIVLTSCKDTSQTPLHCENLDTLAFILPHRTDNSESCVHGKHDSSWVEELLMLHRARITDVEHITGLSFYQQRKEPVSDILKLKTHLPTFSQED
Chain of ENPP-1 ECD (P22413 98-925): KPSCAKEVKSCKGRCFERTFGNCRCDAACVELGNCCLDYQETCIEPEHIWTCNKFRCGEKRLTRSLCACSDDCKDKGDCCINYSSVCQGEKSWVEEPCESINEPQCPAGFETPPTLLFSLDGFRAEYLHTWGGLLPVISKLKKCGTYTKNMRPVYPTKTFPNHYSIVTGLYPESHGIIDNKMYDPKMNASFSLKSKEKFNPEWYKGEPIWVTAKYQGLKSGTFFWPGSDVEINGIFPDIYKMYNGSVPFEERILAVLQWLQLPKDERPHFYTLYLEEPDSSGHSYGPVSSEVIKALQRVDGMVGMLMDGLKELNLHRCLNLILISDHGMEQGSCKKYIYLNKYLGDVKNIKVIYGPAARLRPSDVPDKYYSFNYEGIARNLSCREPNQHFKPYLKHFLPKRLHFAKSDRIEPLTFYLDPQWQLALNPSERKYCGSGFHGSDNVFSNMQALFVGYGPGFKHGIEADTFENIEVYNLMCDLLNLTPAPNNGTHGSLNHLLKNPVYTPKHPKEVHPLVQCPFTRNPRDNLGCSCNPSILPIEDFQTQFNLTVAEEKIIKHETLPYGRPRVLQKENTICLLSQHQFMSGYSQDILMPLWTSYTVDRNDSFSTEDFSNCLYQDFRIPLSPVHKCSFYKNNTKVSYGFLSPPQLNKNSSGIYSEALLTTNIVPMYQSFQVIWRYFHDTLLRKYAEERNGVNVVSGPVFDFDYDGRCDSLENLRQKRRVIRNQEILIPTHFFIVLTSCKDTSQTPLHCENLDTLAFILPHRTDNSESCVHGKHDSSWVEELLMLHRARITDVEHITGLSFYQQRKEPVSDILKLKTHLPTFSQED

Ki (ENPP-1 ECD; [2]) [nM]	Ki (ENPP-1 ECD; [3]) [nM]	Ki [1] [nM]	Ki (ENPP-1 ECD; [4]) [nM]	Ki [1, 5] [nM]	Ki (ENPP-1 ECD; [6]) [nM]	Compound
			15	> 190		COc1cc2nccc(OCc3cccc([S@@](C)(=N)=O)c3)c2cc1F [Compound 169a]
			0.018	1.5		COc1cc2nccc(OCc3cccc([S@](C)(=N)=O)c3)c2cc1F [Compound 169b]
			0.011	0.53		COc1cc2nccc(OCc3cccc([S@](C)(=N)=O)c3)c2cc1OC [Compound 175a]
			0.0085	0.48		COc1ccc2c(OCc3cc(F)cc([S@](C)(=N)=O)c3)ccnc2c1 [Compound 177b]
			0.014	0.63		COc1cccc2c(N3CCC(C[S@](C)(=N)=O)CC3)c(C#N)cnc12 [Compound 179b]
			0.1	1.7		COc1cc2nccc(N3CC4(CC(C[S@@](C)(=N)=O)C4)C3)c2cc1F [Compound 184a]
			2.5	58		COc1cc2nccc(N3CC4(CC(C[S@](C)(=N)=O)C4)C3)c2cc1F [Compound 184b]
			0.013	0.32		COc1cccc2c(N3CCC(O)(C[S@@](C)(=N)=O)CC3)ncnc12 [Compound 185a]
			0.0075	0.31		COc1cccc2c(N3CCC(C[S@](=N)(=O)C4CC4)CC3)c(C#N)cnc12 [Compound 189b]
			0.012	0.36		COc1cccc2c(N3CCC(O)(C[S@](=N)(=O)C4CC4)CC3)ncnc12 [Compound 193b]

Second part, the molecule before the results:

Compound	Ki (ENPP-1 ECD; [2]) [nM]	Ki (ENPP-1 ECD; [3]) [nM]	Ki [1] [nM]	Ki (ENPP-1 ECD; [4]) [nM]	Ki [1, 5] [nM]	Ki (ENPP-1 ECD; [6]) [nM]
COc1cccc2c(N3CCC(CS(C)(=N)=O)CC3)ncnc12 (centres unmarked) [Compound 146, imino({[1-(8-methoxyquinazolin-4-yl)piperidin-4-yl]methyl})methyl-λ^6-sulfanone]	< 3	0.36	15			
COc1cccc2c(N3CCC(C[S@@](C)(=N)=O)CC3)ncnc12 [Compound 146a]				0.12	4.5	
COc1cc2nccc(N3CCC4(CC3)CCN(S(C)(=N)=O)C4)c2cc1Cl (centres unmarked) [Compound 156, [8-(6-chloro-7-methoxyquinolin-4-yl)-2,8-diazaspiro[4.5]decan-2-yl](imino)methyl-λ^6-sulfanone]	< 3	0.03	4.1			
COc1cc2nccc(N3CCC4(CC3)CCN([S@@](C)(=N)=O)C4)c2cc1Cl [Compound 156a]				0.016	1.7	< 3
CCS(=N)(=O)N1CCC2(CCN(c3ncnc4cc(OC)c(OC)cc34)CC2)C1 (centres unmarked) [Compound 159, [8-(6,7-dimethoxyquinazolin-4-yl)-2,8-diazaspiro[4.5]decan-2-yl](ethyl)imino-λ^6-sulfanone]	< 3	0.025	3.6			
COc1cc2ncnc(N3CCC4(CC3)CCN(S(=N)(=O)C3CC3)C4)c2cc1OC (centres unmarked) [Compound 160, {cyclopropyl[8-(6,7-dimethoxyquinazolin-4-yl)-2,8-diazaspiro[4.5]decan-2-yl]imino-λ^6-sulfanyl}one]	< 3	0.021	0.45			
COc1cc2ncnc(N3CCC4(CC3)CCN([S@](=N)(=O)C3CC3)C4)c2cc1OC [Compound 160a]				0.007	0.22	
COc1cc2nccc(-c3ccc4c(c3)CN([S@@](C)(=N)=O)CC4)c2cc1OC [Compound 161a]				0.015	5.2	< 3
COc1ccc2c(Oc3ccc(S(=N)(=O)C4CN(C(C)=O)C4)cc3)ccnc2c1 (centres unmarked) [Compound 166, 1-[3-({4-[(7-methoxyquinolin-4-yl)oxy]phenyl}imino-λ^6-sulfanyl)azetidin-1-yl]ethan-1-one]		3.1	230			
COc1ccc2c(Oc3ccc(S(C)(=N)=O)cc3)c(C)cnc2c1 (centres unmarked) [Compound 168, imino({4-[(7-methoxy-3-methylquinolin-4-yl)oxy]phenyl})methyl-λ^6-sulfanone]		0.84	40			
COc1cc2nccc(OCc3cccc(S(C)(=N)=O)c3)c2cc1F (centres unmarked) [Compound 169, (3-{[(6-fluoro-7-methoxyquinolin-4-yl)oxy]methyl}phenyl)(imino)methyl-λ^6-sulfanone]		0.051	1.5			
COc1ccc2c(OCc3cc(S(C)(=N)=O)co3)ccnc2c1 (centres unmarked) [Compound 170, imino(5-{[(7-methoxyquinolin-4-yl)oxy]methyl}furan-3-yl)methyl-λ^6-sulfanone]		0.7	25			
COc1cc2ncnc(OCc3cccc(S(C)(=N)=O)c3)c2cc1OC (centres unmarked) [Compound 173, (3-{[(6,7-dimethoxyquinazolin-4-yl)oxy]methyl}phenyl)(imino)methyl-λ^6-sulfanone]		0.17	9.2			
COc1ccc2c(OCc3cccc(S(C)(=N)=O)c3)ncnc2c1 (centres unmarked) [Compound 174, imino(3-{[(7-methoxyquinazolin-4-yl)oxy]methyl}phenyl)methyl-λ^6-sulfanone]				5.2	240	
COc1cc2nccc(OCc3cccc(S(C)(=N)=O)c3)c2cc1OC (centres unmarked) [Compound 175, (3-{[(6,7-dimethoxyquinolin-4-yl)oxy]methyl}phenyl)(imino)methyl-λ^6-sulfanone]		0.037	3.5			
COc1cc2nccc(OCc3cccc(S(C)(=N)=O)c3)c2cc1Cl (centres unmarked) [Compound 176, (3-{[(6-chloro-7-methoxyquinolin-4-yl)oxy]methyl}phenyl)(imino)methyl-λ^6-sulfanone]		0.094	7.2			
COc1ccc2c(OCc3cc(F)cc(S(C)(=N)=O)c3)ccnc2c1 (centres unmarked) [Compound 177, (3-fluoro-5-{[(7-methoxyquinolin-4-yl)oxy]methyl}phenyl)(imino)methyl-λ^6-sulfanone]		0.03	1.5			
COc1cccc2c(N3CCC(CS(C)(=N)=O)CC3)c(C#N)cnc12 (centres unmarked) [Compound 179, 4-(4-{[imino(methyl)oxo-λ^6-sulfanyl]methyl}piperidin-1-yl)-8-methoxyquinoline-3-carbonitrile]		0.048	3.3			
COc1cc2ncnc(N3CCC4(CCC(S(C)(=N)=O)C4)CC3)c2cc1OC (centres unmarked) [Compound 181, [8-(6,7-dimethoxyquinazolin-4-yl)-8-azaspiro[4.5]decan-2-yl](imino)methyl-λ^6-sulfanone]		0.16	28			
COc1cc2nccc(N3CC4(CC(CS(C)(=N)=O)C4)C3)c2cc1F (centres unmarked) [Compound 184, {[2-(6-fluoro-7-methoxyquinolin-4-yl)-2-azaspiro[3.3]heptan-6-yl]methyl}(imino)methyl-λ^6-sulfanone]		0.13	5.5			
COc1cccc2c(N3CCC(O)(CS(C)(=N)=O)CC3)ncnc12 (centres unmarked) [Compound 185, {[4-hydroxy-1-(8-methoxyquinazolin-4-yl)piperidin-4-yl]methyl}(imino)methyl-λ^6-sulfanone]		0.028	0.45			
COc1cc2nccc(N3CC4(CC(CS(C)(=N)=O)C4)C3)c2cc1OC (centres unmarked) [Compound 186, {[2-(6,7-dimethoxyquinolin-4-yl)-2-azaspiro[3.3]heptan-6-yl]methyl}(imino)methyl-λ^6-sulfanone]		0.38	17			
CCOc1cccc2c(N3CCC(CS(C)(=N)=O)CC3)ncnc12 (centres unmarked) [Compound 187, {[1-(8-ethoxyquinazolin-4-yl)piperidin-4-yl]methyl}(imino)methyl-λ^6-sulfanone]		0.19	4.4			
COc1cc2nncc(N3CC4(CC(CS(C)(=N)=O)C4)C3)c2cc1OC (centres unmarked) [Compound 188, {[2-(6,7-dimethoxycinnolin-4-yl)-2-azaspiro[3.3]heptan-6-yl]methyl}(imino)methyl-λ^6-sulfanone]		0.074	6.5			
COc1cccc2c(N3CCC(CS(=N)(=O)C4CC4)CC3)c(C#N)cnc12 (centres unmarked) [Compound 189, 4-(4-{[cyclopropyl(imino)oxo-λ^6-sulfanyl]methyl}piperidin-1-yl)-8-methoxyquinoline-3-carbonitrile]		0.033	0.45			
COc1cccc2c(N3CCC(CS(=N)(=O)C4CC4)CC3)ncnc12 (centres unmarked) [Compound 190, cyclopropyl(imino){[1-(8-methoxyquinazolin-4-yl)piperidin-4-yl]methyl}-λ^6-sulfanone]		0.19	7.3			
COc1cccc2c(N3CCC(O)(CS(=N)(=O)C4CCC4)CC3)ncnc12 (centres unmarked) [Compound 191, cyclobutyl({[4-hydroxy-1-(8-methoxyquinazolin-4-yl)piperidin-4-yl]methyl})imino-λ^6-sulfanone]		0.34	15			
COc1cccc2c(N3CCC(O)(CS(=N)(=O)C4CC4)CC3)ncnc12 (centres unmarked) [Compound 193, cyclopropyl({[4-hydroxy-1-(8-methoxyquinazolin-4-yl)piperidin-4-yl]methyl})imino-λ^6-sulfanone]		0.023	0.62			
CCOc1cccc2c(N3CCC(O)(CS(C)(=N)=O)CC3)ncnc12 (centres unmarked) [Compound 196, {[1-(8-ethoxyquinazolin-4-yl)-4-hydroxypiperidin-4-yl]methyl}(imino)methyl-λ^6-sulfanone]		0.091	2.3			
CCOc1cccc2c(N3CCC(CS(C)(=N)=O)CC3)c(C#N)cnc12 (centres unmarked) [Compound 197, 8-ethoxy-4-(4-{[imino(methyl)oxo-λ^6-sulfanyl]methyl}piperidin-1-yl)quinoline-3-carbonitrile]		0.04	2.3			
